The results in this text go back to patent US9650339B2, “Inhibitors of histone demethylases” (Gilead Sciences, Inc., priority 2013, dated 2017).

Structures are written as SMILES.

Experiment [1] addresses T1, KDM4C (Homo sapiens, UniProt Q9H3R0).
T1 construct: Full length; host or cells: U2OS
T1 sequence (Q9H3R0 1-1056): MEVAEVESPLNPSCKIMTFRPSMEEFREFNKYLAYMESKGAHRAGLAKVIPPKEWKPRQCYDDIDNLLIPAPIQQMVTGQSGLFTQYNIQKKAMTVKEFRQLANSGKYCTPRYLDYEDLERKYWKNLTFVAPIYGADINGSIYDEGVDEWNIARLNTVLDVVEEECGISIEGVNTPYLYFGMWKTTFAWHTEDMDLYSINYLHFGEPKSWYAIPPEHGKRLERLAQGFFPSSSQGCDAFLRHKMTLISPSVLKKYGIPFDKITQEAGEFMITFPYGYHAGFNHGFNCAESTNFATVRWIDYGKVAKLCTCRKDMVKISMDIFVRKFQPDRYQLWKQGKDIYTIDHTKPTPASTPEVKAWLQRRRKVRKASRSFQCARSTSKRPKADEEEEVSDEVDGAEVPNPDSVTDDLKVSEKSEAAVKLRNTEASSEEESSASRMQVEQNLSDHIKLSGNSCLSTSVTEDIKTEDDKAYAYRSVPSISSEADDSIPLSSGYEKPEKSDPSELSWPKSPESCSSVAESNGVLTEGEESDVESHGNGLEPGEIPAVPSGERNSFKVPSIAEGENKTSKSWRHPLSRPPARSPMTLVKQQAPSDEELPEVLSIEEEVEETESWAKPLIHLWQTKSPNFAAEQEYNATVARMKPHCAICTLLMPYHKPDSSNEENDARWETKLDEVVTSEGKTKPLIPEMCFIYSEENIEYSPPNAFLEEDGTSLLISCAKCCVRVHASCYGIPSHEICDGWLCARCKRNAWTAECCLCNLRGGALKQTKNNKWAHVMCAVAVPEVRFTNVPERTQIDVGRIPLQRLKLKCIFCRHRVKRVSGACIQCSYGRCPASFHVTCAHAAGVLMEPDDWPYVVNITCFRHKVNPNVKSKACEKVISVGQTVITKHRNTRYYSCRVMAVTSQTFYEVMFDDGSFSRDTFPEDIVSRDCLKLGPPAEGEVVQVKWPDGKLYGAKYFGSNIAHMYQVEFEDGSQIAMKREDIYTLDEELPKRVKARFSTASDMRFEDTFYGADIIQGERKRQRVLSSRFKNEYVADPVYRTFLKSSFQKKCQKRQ
Briefly: Histone lysine demethylase immunofluorescence assay, U2OS cells transfected with KDM4C. The experiment is classed as cell-based. The conditions noted are these: U2OS cells transfected with pCMVHA KDM4C; mark detected H3K9me3; 20 hours. In short, it runs like this: (§1)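 U2OS cells were transiently transfected with HA-tagged demethylase and reseeded after 6 h into compound-containing DMEM/10% FBS for 20 h. Cells were fixed in formaldehyde and immunostained for HA and the relevant histone methyl mark, then imaged. IC50 is based on mean mark staining in HA+ transfected cells.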

The target in experiment [2] is T2, KDM5B (Homo sapiens, UniProt Q9UGL1).
T2 construct: (a.a. 1-752); host or cells: U2OS
T2 sequence (Q9UGL1 1-752): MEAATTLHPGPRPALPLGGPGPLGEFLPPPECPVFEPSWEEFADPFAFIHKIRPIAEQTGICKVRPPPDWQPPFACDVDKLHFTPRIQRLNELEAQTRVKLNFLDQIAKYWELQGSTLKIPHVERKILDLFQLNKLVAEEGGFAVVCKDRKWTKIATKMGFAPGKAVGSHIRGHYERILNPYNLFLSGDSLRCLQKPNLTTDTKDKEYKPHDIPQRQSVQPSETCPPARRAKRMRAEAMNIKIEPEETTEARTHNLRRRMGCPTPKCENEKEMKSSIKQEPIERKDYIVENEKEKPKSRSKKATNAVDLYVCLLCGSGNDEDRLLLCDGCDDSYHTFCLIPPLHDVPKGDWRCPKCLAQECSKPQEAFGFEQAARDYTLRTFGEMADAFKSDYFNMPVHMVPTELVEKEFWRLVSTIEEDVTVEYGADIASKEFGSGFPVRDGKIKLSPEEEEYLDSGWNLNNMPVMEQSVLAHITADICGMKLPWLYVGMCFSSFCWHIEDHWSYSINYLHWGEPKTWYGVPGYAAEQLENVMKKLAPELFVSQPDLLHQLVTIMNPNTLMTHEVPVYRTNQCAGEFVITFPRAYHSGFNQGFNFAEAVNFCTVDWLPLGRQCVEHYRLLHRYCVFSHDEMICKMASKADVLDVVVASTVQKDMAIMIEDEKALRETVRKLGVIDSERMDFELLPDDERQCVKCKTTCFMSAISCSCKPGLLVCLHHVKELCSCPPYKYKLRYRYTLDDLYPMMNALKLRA
Briefly: Histone lysine demethylase immunofluorescence assay, U2OS cells transfected with KDM5B. The following applies: U2OS cells transfected with pCMVHA KDM5B; mark detected H3K4me2; 20 hours. Type of experiment: cell-based. A digest of the protocol: as §1

For orientation: IC50 means the concentration that gives 50% inhibition. In the case of `CCN(CC)CCCCN(Cc1cc(CNC(=O)C(F)(F)F)ccn1)C(=O)C(F)(F)F` [Compound 6, N-[4-(diethylamino)butyl]-- 2,2,2-trifluoro-N-({4-[(trifluoroacetamido)-methyl]pyridin-2-yl}methyl)acetamide], the IC50 in experiment [1] is above 2.5 µM; in experiment [2], below 0.25 µM.
For `CN(C)CCNCc1cc(CNC(C#N)C2CC2)ccn1` (stereo not drawn) [Compound 21, 2-cyclopropyl-2-({[2-({[2-(dimethylamino)ethyl]-amino}methyl)pyridin-4-yl]methyl}amino)-acetonitrile] the same measures were above 2.5 µM and 0.25 to 2.5 µM.
Taken in the same sequence, the figures for `CN(C)CC1CCC(CNCc2cc(C=O)ccn2)CC1` (stereo not drawn) [Compound 97, 2-{[({4-[(dimethylamino)-methyl]cyclohexyl}-methyl)amino]-methyl}pyridine-4-carbaldehyde] were 0.25 to 2.5 µM and below 0.25 µM.
Take `OCC/N=C/c1ccnc(CNCCc2ccccc2OCc2ccccc2)c1` [Compound 93, 2-[({2-[({2-[2-(benzyloxy)phenyl]-ethyl}amino)methyl]-pyridin-4-yl}methylidene)-amino]ethan-1-ol]: the IC50 in experiment [1] and in experiment [2] was above 2.5 µM each time.
Take `CN(C)C(=O)CNCc1cc(CNCCF)ccn1` [Compound 14, 2-{[(4-{[(2-fluoroethyl)amino]-methyl}pyridin-2-yl)methyl]amino}-N,N-dimethylacetamide]: the IC50 in experiment [1] and in experiment [2] was above 2.5 µM throughout.
Take `CN(C)C(=O)CNCc1cc(CNCC#N)ccn1` [Compound 13, 2-{[(4-{[(cyanomethyl)amino]-methyl}pyridin-2-yl)methyl]amino}-N,N-dimethylacetamide]: the IC50 in experiment [1] and in experiment [2] was 0.25 to 2.5 µM in each case.
As for `CN1CCN(C(=O)CNCc2cc(/C=N/C3CC3)ccn2)CC1` [Compound 54, 2-[({4-[N-cyclopropyl-carboximidoyl]-pyridin-2-yl}methyl)amino]-1-(4-methylpiperazin-1-yl)ethan-1-one], the IC50 in experiment [1] is above 2.5 µM; in experiment [2], 0.25 to 2.5 µM.
Consider `CCN(CC)CCCCNCc1cc(C=O)ccn1` [Compound 107, 2-({[4-(diethylamino)-butyl]amino}-methyl)pyridine-4-carbaldehyde], for which the IC50 was 0.25 to 2.5 µM in experiment [1] and below 0.25 µM in experiment [2].
For `CN(Cc1ccccc1F)C(=O)CNCc1cc(/C=N/CCO)ccn1` [Compound 92, N-[(2-fluorophenyl)methyl]-2-[({4-[[(2-hydroxyethyl)imino]-methyl]pyridin-2-yl}methyl)amino]-N-methylacetamide] the same measures were above 2.5 µM and above 2.5 µM.
As to `CCN(CC)CCCCNCc1cc(/C=N/CC(F)(F)C(F)(F)F)ccn1` [Compound 62, {[2-({[4-(diethylamino)-butyl]amino}methyl)pyridin-4-yl]methylidene} (2,2,3,3,3-pentafluoropropyl)-amine], the results for the IC50 in experiment [1] and in experiment [2] were 0.25 to 2.5 µM and below 0.25 µM, respectively.
As for `CCN1CCCC1CNC(=O)CNCc1cc(/C=N/C2CC2)ccn1` (stereo not drawn) [Compound 51, 2-[({4-[N-cyclopropyl-carboximidoyl]-pyridin-2-yl}methyl)-amino]-N-[(1-ethylpyrrolidin-2-yl)methyl]acetamide], the values for the IC50 in experiment [1] and in experiment [2] were above 2.5 µM and 0.25 to 2.5 µM, respectively.
Taken in the same sequence, the figures for `CCN(CCN(C)C)C(=O)CNCc1cc(/C=N/CCC2CCCCC2)ccn1` [Compound 63, 2-[({4-[[(2-cydohexylethyl)-imino]methyl]pyridin-2-yl}methyl)amino]-N-[2-(dimethylamino)-ethyl]-N-ethylacetamide] were 0.25 to 2.5 µM and below 0.25 µM.
Taken in the same sequence, the figures for `CN(CCCn1cccn1)C(=O)CNCc1cc(/C=N/C2CC2)ccn1` [Compound 52, 2-[({4-[N-cyclopropyl-carboximidoyl]-pyridin-2-yl}methyl)amino]-N-methyl-N-[3-(1H-pyrazol-1-yl)propyl]acetamide] were above 2.5 µM and 0.25 to 2.5 µM.
Taken in the same sequence, the figures for `O=C(CNCc1cc(/C=N/C2CC2)ccn1)N1CCC[C@@H]1CN1CCCC1` [Compound 49, 2-[({4-[N-cyclopropyl-carboximidoyl]pyridin-2-yl}methyl)amino]-1-[(2R)-2-(pyrrolidin-1-ylmethyl)pyrrolidin-1-yl]ethan-1-one] were 0.25 to 2.5 µM and below 0.25 µM.
For the molecule `CC(C#N)NCc1ccnc(CNCCCN(C)C)c1` (stereo not drawn) [Compound 22, 2-({[2-({[3-(dimethylamino)propyl]-amino}methyl)pyridin-4-yl]methyl}amino)-propanenitrile], the IC50 is above 2.5 µM in experiment [1] and below 0.25 µM in experiment [2].
As for `CN(C)C(=O)CNCc1cc(/C=N/CCCc2ccccc2)ccn1` [Compound 34, N,N-dimethyl-2-[({4-[[(3-phenylpropyl)imino]-methyl]pyridin-2-yl}methyl)amino]-acetamide], the IC50 in experiment [1] was above 2.5 µM; in experiment [2], 0.25 to 2.5 µM.
Take `O=Cc1ccnc(CNCCCN2CCCC2)c1` [Compound 111, 2-({[3-(pyrrolidin-1-yl)propyl]amino}-methyl)pyridine-4-carbaldehyde]: the IC50 in experiment [1] is above 2.5 µM; in experiment [2], below 0.25 µM.
Taken in the same sequence, the figures for `CN(C)CCNCc1cc(C=O)ccn1` [Compound 110, 2-({[2-(dimethylamino)-ethyl]amino}methyl)-pyridine-4-carbaldehyde] were above 2.5 µM and 0.25 to 2.5 µM.
For `CN1CCN(C(=O)CNCc2cc(C=O)ccn2)CC1` [Compound 103, 2-({[2-(4-methylpiperazin-1-yl)-2-oxoethyl]-amino}methyl)-pyridine-4-carbaldehyde] the same measures were above 2.5 µM and 0.25 to 2.5 µM.
Taken in the same sequence, the figures for `CN(C)CCCCCNCc1cc(CN)ccn1` [Compound 8, [2-({[5-(dimethylamino)pentyl]-amino}methyl)pyridin-4-yl]methanamine] were 0.25 to 2.5 µM and below 0.25 µM.
For `O=Cc1ccnc(CNCC(=O)N2CCC(Cc3ccccc3)CC2)c1` [Compound 106, 2-({[2-(4-benzylpiperidin-1-yl)-2-oxoethyl]-amino}methyl)-pyridine-4-carbaldehyde], the IC50 in experiment [1] and in experiment [2] was above 2.5 µM throughout.
Consider `C(=N/C1CC1)/c1ccnc(CNCCCN2CCCC2)c1` [Compound 42, N-{[2-({[3-(pyrrolidin-1-yl)propyl]amino}-methyl)pyridin-4-yl]methylidene}-cyclopropanamine], for which the IC50 is 0.25 to 2.5 µM in experiment [1] and below 0.25 µM in experiment [2].
Consider `CCN(CC)CCCCNC(=O)CNCc1cc(C=O)ccn1` [Compound 112, N-[4-(diethylamino)-butyl]-2-{[(4-formylpyridin-2-yl)methyl]amino}-acetamide], for which the IC50 in experiment [1] and in experiment [2] was above 2.5 µM each time.
For the molecule `COc1ccccc1CN1CCC(NC(=O)CNCc2cc(CN)ccn2)CC1` [Compound 9, 2-({[4-(aminomethyl)pyridin-2-yl]methyl}amino)-N-{1-[(2-methoxyphenyl)methyl]-piperidin-4-yl}acetamide], the IC50 in experiment [1] was above 2.5 µM; in experiment [2], 0.25 to 2.5 µM.
